# Experimental data taken from US11286268B1, “EIF4E-inhibiting compounds and methods” (EFFECTOR THERAPEUTICS, INC., priority 2019, dated 2022).
# Read-outs that look alike come from different tables or passages of the source.
# Biological target: recombinant eIF4E (Homo sapiens (Human), UniProt P06730)
# Assay: Fluorescence polarization competition assay for eIF4E binding potency
# How it was run: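 IC50 values reflect 50% displacement of 20 nM EDA-m7GDP-ATTO-550 from 75 nM eIF4E, measured by fluorescence polarization after 30 min at room temperature. Buffer: 20 mM Tris pH 7.5, 100 mM NaCl, 1 mM DTT, 0.02% Tween-20; 1% DMSO.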
# [1] = fluorescence polarization competition, 75 nM recombinant eIF4E, 20 nM EDA-m7GDP-ATTO-550, IC50 class, read-out: elF4E FP
# [2] = inhibition of eIF4E/EDA-m7GDP-ATTO-550 binding by 50%, Table 4B calculated values, read-out: IC50
# Sequence of recombinant eIF4E (P06730 whole entry): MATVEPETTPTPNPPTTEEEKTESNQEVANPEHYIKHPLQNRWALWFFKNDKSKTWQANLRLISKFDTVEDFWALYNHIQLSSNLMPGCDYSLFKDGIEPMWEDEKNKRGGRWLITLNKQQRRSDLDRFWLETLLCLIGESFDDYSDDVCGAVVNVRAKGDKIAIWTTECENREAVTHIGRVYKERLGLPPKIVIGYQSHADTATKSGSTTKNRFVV
Compound,IC50 [1] [µM],IC50 [2] [µM]
Cc1cc(-c2cc(Cl)ccc2OCCn2c(C)nc3cc(C(F)(F)F)c(Oc4cccnc4)c(C#N)c3c2=O)c2scc(C(=O)O)c2n1 [compound 1035],< 0.05,
COc1c(C(F)(F)F)cc2nc(C)n(CCOc3ccc(Cl)cc3-c3cc(C)nc4c(C(=O)O)csc34)c(=O)c2c1C#N [compound 1036],< 0.05,0.00351
Cc1cc(-c2cc(Cl)ccc2OCCn2c(C)nc3cnc(Oc4ccccc4)c(C#N)c3c2=O)c2scc(C(=O)O)c2n1 [compound 1038],< 0.05,0.0389
Cc1cc(-c2cc(Cl)ccc2OCCn2c(C)nc3cnc(OCc4ccccn4)c(C#N)c3c2=O)c2scc(C(=O)O)c2n1 [compound 1039],< 0.05,0.0217
Cc1cc(-c2cc(Cl)ccc2OCCn2c(C)nc3cc(N(C)C)c(-c4ccccc4)c(C#N)c3c2=O)c2scc(C(=O)O)c2n1 [compound 1040],< 0.05,0.03
Cc1cc(-c2cc(Cl)ccc2OCCn2c(C)nc3cnc(N4CC(OC(F)F)C4)c(C#N)c3c2=O)c2scc(C(=O)O)c2n1 [compound 1041],< 0.05,0.00621
Cc1cc(-c2cc(Cl)ccc2OCCn2c(C)nc3cnc(N4CC(OC(F)(F)F)C4)c(C#N)c3c2=O)c2scc(C(=O)O)c2n1 [compound 1042],< 0.05,0.0265
Cc1cc(-c2cc(Cl)ccc2OCCn2c(C)nc3cnc(N4CC(OCC(F)F)C4)c(C#N)c3c2=O)c2scc(C(=O)O)c2n1 [compound 1043],< 0.05,0.00398
Cc1cc(-c2cc(Cl)ccc2OCCn2c(C)nc3cnc(N4CC(OCC(F)(F)F)C4)c(C#N)c3c2=O)c2scc(C(=O)O)c2n1 [compound 1044],< 0.05,0.00531
Cc1cc(-c2cc(Cl)ccc2OCCn2c(C)nc3cnc(N4CC(OC(C)(C)C)C4)c(C#N)c3c2=O)c2scc(C(=O)O)c2n1 [compound 1045],< 0.05,0.0382
Cc1cc(-c2cc(Cl)ccc2OCCn2c(C)nc3cc(Cl)c(C4CCC4)c(C#N)c3c2=O)c2scc(C(=O)O)c2n1 [compound 1047],< 0.05,0.0212
Cc1cc(-c2cc(Cl)ccc2OCCn2c(C)nc3cc(C(F)F)c(C4CC4)c(C#N)c3c2=O)c2scc(C(=O)O)c2n1 [compound 1048],< 0.05,0.0137
Cc1cc(-c2cc(Cl)ccc2OCCn2c(C)nc3cc(C(F)(F)F)c(C4CC4)c(C#N)c3c2=O)c2scc(C(=O)O)c2n1 [compound 1049],< 0.05,0.00935
Cc1cc(-c2cc(Cl)ccc2OCCn2c(C)nc3cc(Cl)c(C4CC4)c(C#N)c3c2=O)c2scc(C(=O)O)c2n1 [compound 1050],< 0.05,0.0195
Cc1cc(-c2cc(Cl)ccc2OCCn2c(C)nc3cnc(-c4cc(F)cnc4C)c(C#N)c3c2=O)c2scc(C(=O)O)c2n1 [compound 1051],< 0.05,0.00502
Cc1cc(-c2cc(Cl)ccc2OCCn2c(C)nc3cnc(-c4cc(F)ccc4C)c(C#N)c3c2=O)c2scc(C(=O)O)c2n1 [compound 1052],< 0.05,0.00546
CC(=O)N(C)c1ncc2nc(C)n(CCOc3ccc(Cl)cc3-c3cc(C)nc4c(C(=O)O)csc34)c(=O)c2c1C#N [compound 1053],< 0.05,0.00508
Cc1cc(-c2cc(Cl)ccc2OCCn2c(C)nc3cc(Cl)c(N4CCC(O)C4)c(C#N)c3c2=O)c2scc(C(=O)O)c2n1 (centres unmarked) [compound 1054],< 0.05,0.0186
Cc1cc(-c2cc(Cl)ccc2OCCn2c(C)nc3cc(C(F)(F)F)c(N4CC(C)(O)C4)c(C#N)c3c2=O)c2scc(C(=O)O)c2n1 [compound 1055],< 0.05,0.0117
Cc1cc(-c2cc(Cl)ccc2OCCn2c(C)nc3cnc(N4CCC(O)C4)c(C#N)c3c2=O)c2scc(C(=O)O)c2n1 (centres unmarked) [compound 1056],< 0.05,0.0161
Cc1cc(-c2cc(Cl)ccc2OCCn2c(C)nc3cnc(N4CC(C)(O)C4)c(C#N)c3c2=O)c2scc(C(=O)O)c2n1 [compound 1057],< 0.05,0.0125
